Results taken from patent publication US7670613B2, “Androgen modulators” (Pfizer Inc., priority 2004, dated 2010).
Positions count from the first letter of the chain named. Like-named read-outs stand apart in the source and are kept apart here.

Columns and labels:
androgen receptor = molecular target: T1, androgen receptor (Homo sapiens, UniProt P10275, Q868H); experiment: AR antagonist cell assay (MDA-MB453-MMTV clone 54-19, luciferase reporter); assay type: cell-based; settings: 100 pM DHT, 17 hr, mean of multiple tests
T1 construct: a human breast tumor cell line expressing androgen receptor; endogenous in cells; host or cells: MDA-MB453-MMTV clone 54-19 (only the MMTV-luciferase reporter was transfected)
T1 sequence (P10275 1-920 Q868H): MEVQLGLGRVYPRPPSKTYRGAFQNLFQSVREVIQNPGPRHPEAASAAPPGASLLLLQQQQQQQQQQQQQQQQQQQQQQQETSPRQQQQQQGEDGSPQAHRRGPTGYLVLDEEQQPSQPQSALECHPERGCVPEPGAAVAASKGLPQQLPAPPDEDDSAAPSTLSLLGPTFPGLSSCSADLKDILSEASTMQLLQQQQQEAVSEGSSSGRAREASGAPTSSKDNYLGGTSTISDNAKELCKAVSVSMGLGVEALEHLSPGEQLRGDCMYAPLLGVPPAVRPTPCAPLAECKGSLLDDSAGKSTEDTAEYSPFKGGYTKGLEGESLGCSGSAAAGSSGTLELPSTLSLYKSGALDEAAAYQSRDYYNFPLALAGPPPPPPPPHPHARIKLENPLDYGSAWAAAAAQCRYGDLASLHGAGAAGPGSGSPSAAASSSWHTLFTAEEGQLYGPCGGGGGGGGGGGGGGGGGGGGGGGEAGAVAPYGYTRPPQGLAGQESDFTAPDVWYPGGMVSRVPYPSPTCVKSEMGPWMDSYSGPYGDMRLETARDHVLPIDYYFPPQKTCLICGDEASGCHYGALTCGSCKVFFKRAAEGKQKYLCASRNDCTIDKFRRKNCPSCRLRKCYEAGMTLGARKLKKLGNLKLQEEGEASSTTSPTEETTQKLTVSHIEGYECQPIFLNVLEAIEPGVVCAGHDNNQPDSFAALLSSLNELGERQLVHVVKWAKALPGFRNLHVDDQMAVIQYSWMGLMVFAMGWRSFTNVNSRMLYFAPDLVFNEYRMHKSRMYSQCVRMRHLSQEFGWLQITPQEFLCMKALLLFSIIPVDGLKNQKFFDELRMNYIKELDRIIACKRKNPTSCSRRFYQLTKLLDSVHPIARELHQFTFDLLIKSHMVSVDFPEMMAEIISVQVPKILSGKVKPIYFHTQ
Procedure: The compounds ability to antagonize the effects of androgen on the androgen receptor were determined in a whole cell assay as described immediately below.
Experimental Procedure for AR Antagonist Cell Assay
This cell line is a stable transfected cell line with MDA-MB453 cell background (a human breast tumor cell line expressing androgen receptor). A MMTV minimal promoter containing ARE was first cloned in front of a firefly luciferase reporter gene. Then the cascade was cloned into transfection vector pUV120puro. Electroporation method was used for transfecting MDA-MB-453 cell. Puromycin resistant stable cell line was selected.
Cell Culture Media and Reagents:
Culture medium: DMEM (high glucose, Gibco cat #: 11960-044), 10% FBS, and 1% L-glutamine
Plating medium: DMEM (phenol red free), 10% charcoal treated HyClone serum, 1% L-glutamine
Assay medium: DMEM (phenol red free), 1% charcoal treated HyClone serum, 1% L-glutamine, and 1% penicillin/streptomycin
3× luciferase buffer: 2% beta-mercaptoethanol, 0.6% ATP, 0.0135% luciferine in cell lysis buffer
• 1. Cells are maintained in culture medium, splitting cells when they reach 80-90% confluence • 2. To test compounds, 10,000 cells/well are plated to opaque 96 cell culture plate in 100 ul/well plating medium, culture for overnight at 37° C. in cell culture incubator • 3. Carefully remove plating medium, then add 80 ul/well of pre-warmed assay medium, add 10 ul/well testing compound (final concentration at) 1000 nM, 200 nM, 40 nM, 8 nM, 1.6 nM, and 0.32 nM), incubate at 37° C. for 30 minutes • 4. Add 10 ul/well freshly prepared DHT (final concentration at 100 pM) to each well, incubate at 37° C. for 17 hr (overnight) • 5.
The results are reported as the mean of multiple tests as described below (the numbers of tests are indicated in the footnote). N.D. denotes that the compound was not tested.

hAR = molecular target: T2, hAR (Homo sapiens, UniProt P10275); experiment: Competitive binding analysis on baculovirus/Sf9 generated hAR extracts with 3H-DHT tracer; settings: 1 nM 3H-DHT, one hour at 4° C., mean of multiple tests
T2 construct: made in house; host or cells: baculovirus/Sf9 insect cells
T2 sequence (P10275 1-920): T1 sequence (P10275 1-920 Q868H) with H868Q
Procedure: The description below describes how the assay was carried out.
Competitive binding analysis was performed on baculovirus/Sf9 generated hAR extracts in the presence or absence of different concentrations of test agent and a fixed concentration of ^3H-dihydrotestosterone (^3H-DHT) as tracer. This binding assay method is a modification of a protocol previously described (Liao S., et. al. J. Steroid Biochem. 20:11-17 1984). Briefly, progressively decreasing concentrations of compounds are incubated in the presence of hAR extract (Chang et al. P.N.A.S. Vol. 89, pp. […], 1992), hydroxylapatite, and 1 nM ^3H-DHT for one hour at 4° C. Subsequently, the binding reactions are washed three times to completely remove excess unbound ^3H-DHT. hAR bound ^3H-DHT levels are determined in the presence of compounds (i.e. competitive binding) and compared to levels bound when no competitor is present (i.e. maximum binding). Compound binding affinity to the hAR is expressed as the concentration of compound at which one half of the maximum binding is inhibited.

[1] = after 7 years of treatment; cited from earlier work
[2] = MDA-MB453-MMTV clone 54-19 cells, read-out: AR Cell IC50
[3] = hAR extract, read-out: AR Binding IC50

Row | Structure (SMILES) | IC50 (androgen receptor; [2]) [µM] | IC50 (hAR; AR Binding IC50, hAR extract) [µM] | IC50 (hAR; [3]) [µM] | IC50 (androgen receptor; AR Cell IC50, MDA-MB453-MMTV clone 54-19 cells) [µM] | Increase in spinal BMD [1] [%]
1 | C[C@H]1CCCC[C@@H]1Oc1ccc(C#N)c(Cl)c1 [Example 41, (1S,2S)-2-Chloro-4-(2-methyl-cyclohexyloxy)-benzonitrile] | 0.046 | 0.018 | – | – | –
2 | N#Cc1ccc(OC2CCCCCC2)c(Cl)c1 [Example 43, 3-Chloro-4-cycloheptyloxy-benzonitrile] | 0.012 | – | 0.289 | – | –
3 | N#Cc1ccc(OC2CCCCC2)cc1Cl [Example 45, 2-Chloro-4-cyclohexyloxy-benzonitrile] | 0.147 | – | 0.196 | – | –
4 | N#Cc1ccc(OC2CCCC2)cc1Cl [Example 46, 2-Chloro-4-cyclopentyloxy-benzonitrile] | 0.018 | 0.049 | – | – | –
5 | CC(C)[C@H]1CC[C@H](C)C[C@@H]1Oc1ccc(C#N)c(Cl)c1 [Example 47, (1S,2R,5S)-2-Chloro-4-(2-isopropyl-5methyl-cyclohexyloxy)-benzonitrile] | 0.75 | – | 0.107 | – | –
6 | C=C(C)[C@H]1CC[C@H](C)[C@@H](Oc2ccc(C#N)c(Cl)c2)C1 [Example 49, (1S,2S,5S)-2-Chloro-4-(5-isopropenyl-2-methyl-cyclohexyloxy)-benzonitrile] | 0.049 | 0.01 | – | – | –
7 | N#Cc1ccc(O[C@@H]2CCCC[C@H]2C#N)cc1Cl [Example 50, (1R,2S)-2-Chloro-4-(2-cyano-cyclohexyloxy)-benzonitrile] | 0.202 | 0.017 | – | – | –
8 | CC1CCCC(Oc2ccc(C#N)c(Cl)c2)C1C (centres unmarked) [Example 52, 2-Chloro-4-(2,3-dimethyl-cyclohexyloxy)-benzonitrile] | 0.308 | 0.072 | – | – | –
9 | CC1CCCC(C)C1Oc1ccc(C#N)c(Cl)c1 (centres unmarked) [Example 53, 2-Chloro-4-(2,6-dimethyl-cyclohexyloxy)-benzonitrile] | > 1 | 0.033 | – | – | –
10 | N#Cc1ccc(O[C@H]2CCCC[C@@H]2c2ccccc2)cc1Cl [Example 55, (1S,2R)-2-Chloro-4-(2-phenyl-cyclohexyloxy)-benzonitrile] | 0.421 | 0.265 | – | – | –
11 | N#Cc1ccc(OC2CC3CCC2C3)cc1Cl (centres unmarked) [Example 62, 4-(Bicyclo[2.2.1]hept-2-yloxy)-2-chloro-benzonitrile] | < 0.00032 | 0.046 | – | – | –
12 | C[C@H]1CCC[C@@H]1Oc1ccc(C#N)c(Cl)c1 [Example 67, (1S,2S)-2-Chloro-4-(2-methyl-cyclopentyloxy)-benzonitrile] | < 0.00032 | 0.044 | – | – | –
13 | N#Cc1ccc(OC2CCC2)cc1Cl [Example 68, 2-Chloro-4-cyclobutyloxy-benzonitrile] | 0.103 | – | 0.297 | – | –
14 | C=CCO[C@H]1CCCC[C@@H]1Oc1ccc(C#N)c(C(F)(F)F)c1 [Example 71, (1S,2S)-4-(2-Allyloxy-cyclohexyloxy)-2-trifluoromethyl-benzonitrile] | – | – | 0.374 | 0.023 | –
15 | NCCCC(O)(P(=O)(O)O)P(=O)(O)O [alendronate] | – | – | – | – | ≤ 11
